Consider 28 molecules from patent publication US20040167131A1, “Inhibitors of factor Xa and other serine proteases involved in the coagulation cascade” (Pfizer Inc., priority 2002, published 2004).

The labels stand for the following.
B1: Antistasin: a potent inhibitor of blood coagulation factor Xa from the Mexican leech, Haementeria officinalis (protein, UniProt P15358 18-136, looked up)
Antistasin: QGPFGPGCEEAGCPEGSACNIITDRCTCSGVRCRMHCPHGFQRSRYGCEFCKCRLEPMKATCDISECPEGMMCSRLTNKCDCKIDINCRKTCPNGLKRDKLGCEYCECRPKRKLIPRLS

For the first assay, the target named is T1, human factor Xa (Homo sapiens, UniProt P00742).
T1 construct: purchased Enzyme Research Laboratories
T1 sequence (P00742 235-488 limits assumed): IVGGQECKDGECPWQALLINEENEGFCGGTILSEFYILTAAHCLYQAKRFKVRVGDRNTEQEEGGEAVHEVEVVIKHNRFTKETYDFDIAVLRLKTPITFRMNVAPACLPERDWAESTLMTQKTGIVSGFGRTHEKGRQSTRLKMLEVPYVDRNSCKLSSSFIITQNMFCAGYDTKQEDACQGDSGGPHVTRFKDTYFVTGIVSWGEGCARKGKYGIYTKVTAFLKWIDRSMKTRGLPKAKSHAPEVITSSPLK
T1 sequence (P00742 41-179 partner limits assumed): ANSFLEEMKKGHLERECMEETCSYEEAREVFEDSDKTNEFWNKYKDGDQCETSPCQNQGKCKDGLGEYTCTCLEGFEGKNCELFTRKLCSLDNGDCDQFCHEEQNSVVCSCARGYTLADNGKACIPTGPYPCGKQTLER
Description: Determination of Factor Xa IC50 (cleavage of fluorogenic substrate F-S2765). The class given is biochemical. The conditions noted are these: 3 pM human factor Xa; read-out: FXa 3 pM IC50. The method, then: The ability of compounds to act as inhibitors of human factor Xa catalytic activity was assessed by determination of that concentration of test substance that inhibited by 50% (IC50) the ability of human factor Xa to cleave the fluorogenic substrate F-S2765 (N-α-Z-D-Arg-Gly-Arg-pNA HCl, California Peptide Research). […] The IC50 was determined at 3 pM and/or 30 pM concentrations of human factor Xa (Enzyme Research Laboratories). These concentrations were achieved by diluting a stock solution of human factor Xa in the appropriate amount of buffer containing 10 mM HEPES, 150 mM NaCl, and 0.1% BSA at pH 7.4 (HBSA buffer). Accordingly, 73 μL of the factor Xa/buffer solution was added to 2.5 μL of DMSO-reconstituted compound and incubated for 55 minutes at room temperature. After warming to 37° C. for am additional 5 minutes, 50 μL of rewarmed substrate was added and the IC50 determined by monitoring the increase in absorbance at 390 nm excitation/460 nm emission (455 nm cutoff) in a fluorometric plate reader or 30 minutes.
As for `CS(=O)(=O)c1ccccc1-c1ccc(NC(=O)C2(NC(=O)Nc3ccc(Cl)cc3)CC2)cc1` [Example 2, 1-[3-(4-Chloro-phenyl)-ureido]-cyclopropanecarboxylic acid (2′-methanesulfonyl-biphenyl-4-yl)-amide], the IC50 is 33 nM. Regarding `CS(=O)(=O)c1ccccc1-c1ccc(NC(=O)C2(NC(=O)Nc3ccc(Cl)cc3)CC2)c(F)c1` [Example 3, 1-[3-(4-Chloro-phenyl)-ureido]-cyclopropanecarboxylic acid (3-fluoro-2′-methanesulfonyl-biphenyl-4-yl)-amide], the 50% inhibitory concentration (IC50) is 22 nM. For `CC(C)(NC(=O)Nc1ccc(Cl)cc1)C(=O)Nc1ccc(-c2ccccc2S(C)(=O)=O)cc1F` [Example 7, 2-[3-(4-Chloro-phenyl)-ureido]-N-(3-fluoro-2′-methanesulfonyl-biphenyl-4-yl)-2-methyl-propionamide], the half-inhibitory concentration (IC50) came to 20 nM. Same read-out and setting: the figure for `CS(=O)(=O)c1ccccc1-c1ccc(NC(=O)C2(NC(=O)Nc3ccc(Cl)cc3)CCCCC2)cc1` [Example 10, 1-[3-(4-Chloro-phenyl)-ureido]-cyclohexanecarboxylic acid (2′-methanesulfonyl-biphenyl-4-yl)-amide] is 16 nM.

The assay is the same for the next values; noted with them: 30 pM human factor Xa; compound @ 1 μM.
For `CN(C(=O)NCC(=O)Nc1ccc(-c2ccccc2S(C)(=O)=O)cc1F)c1ccc(Cl)cc1` [Example 13, 2-[3-(4-Chloro-phenyl)-3-methyl-ureido]-N-(3-fluoro-2′-methanesulfonyl-biphenyl-4-yl)-acetamide], the “FxXa 30 pM, % @ 1 μM” value was 17% @ 1 μM. Regarding `CN(CC(=O)Nc1ccc(-c2ccccc2S(C)(=O)=O)cc1F)C(=O)N(C)c1ccc(Cl)cc1` [Example 14, 2-[3-(4-Chloro-phenyl)-1,3-dimethyl-ureido]-N-(3-fluoro-2′-methanesulfonyl-biphenyl-4-yl)-acetamide], the “FxXa 30 pM, % @ 1 μM” value stood at 18% @ 1 μM. Still for that read-out and setting: then `CN(C)CCN(CC(=O)Nc1ccc(-c2ccccc2S(C)(=O)=O)cc1F)C(=O)Nc1ccc(Cl)cc1` [Example 26, 2-[3-(4-Chloro-phenyl)-1-(2-dimethylamino-ethyl)-ureido]-N-(3-fluoro-2′-methanesulfonyl-biphenyl-4-yl)-acetamide], with 13.7% @ 1 μM; and `CS(=O)(=O)c1ccccc1-c1ccc(NC(=O)CN(Cc2ccccc2)C(=O)Nc2ccc(Cl)cc2)c(F)c1` [Example 27, 2-[1-Benzyl-3-(4-chloro-phenyl)-ureido]-N-(3-fluoro-2′-methanesulfonyl-biphenyl-4-yl)-acetamide], with 30% @ 1 μM.

Still in this assay, the particulars now being: 30 pM human factor Xa; read-out: FxXa 30 pM IC50.
Take `CS(=O)(=O)c1ccccc1-c1ccc(NC(=O)C2(NC(=O)Nc3ccc(Cl)cn3)CC2)c(F)c1` [Example 4, 1-[3-(5-Chloro-pyridin-2-yl)-ureido]-cyclopropanecarboxylic acid (3-fluoro-2′-methanesulfonyl-biphenyl-4-yl)-amide]: the IC50 was found to be 255 nM. On the same count and under the same terms, the figure for `NS(=O)(=O)c1ccccc1-c1ccc(NC(=O)C2(NC(=O)Nc3ccc(Cl)cc3)CC2)c(F)c1` [Example 5, 1-[3-(4-Chloro-phenyl)-ureido]-cyclopropanecarboxylic acid (3-fluoro-2′-sulfamoyl-biphenyl-4-yl)-amide] is 36 nM; for `NS(=O)(=O)c1ccccc1-c1ccc(NC(=O)C2(NC(=O)Nc3ccc(Cl)cn3)CC2)c(F)c1` [Example 6, 1-[3-(5-Chloro-pyridin-2-yl)-ureido]-cyclopropanecarboxylic acid (3-fluoro-2′-sulfamoyl-biphenyl-4-yl)-amide] it is 192 nM; for `CC(C)(NC(=O)Nc1ccc(Cl)cn1)C(=O)Nc1ccc(-c2ccccc2S(C)(=O)=O)cc1F` [Example 8, 2-[3-(5-Chloro-pyridin-2-yl)-ureido]-N-(3-fluoro-2′-methanesulfonyl-biphenyl-4-yl)-2-methyl-propionamide] it is 287 nM.

For the molecule `CC(C)(NC(=O)Nc1ccc(Cl)cc1)C(=O)Nc1ccc(-c2ccccc2S(N)(=O)=O)cc1F` [Example 9], the IC50 is 44 nM. Consider `NS(=O)(=O)c1ccccc1-c1ccc(NC(=O)C2(NC(=O)Nc3ccc(Cl)cc3)CC=CC2)c(F)c1` [Example 11, 1-[3-(4-Chloro-phenyl)-ureido]-cyclopent-3-enecarboxylic acid (3-fluoro-2′-sulfamoyl-biphenyl-4-yl)-amide], for which the IC50 came out at 66 nM. On the same count and under the same terms, then `CN(CC(=O)Nc1ccc(-c2ccccc2S(C)(=O)=O)cc1F)C(=O)Nc1ccc(Cl)cc1` [Example 12, 2-[3-(4-Chloro-phenyl)-1-methyl-ureido]-N-(3-fluoro-2′-methanesulfonyl-biphenyl-4-yl)-acetamide], with 20 nM; and `NS(=O)(=O)c1ccccc1-c1ccc(NC(=O)C(CO)(CO)NC(=O)Nc2ccc(Cl)cc2)cc1` [Example 15, 2-[3-(4-Chloro-phenyl)-ureido]-3-hydroxy-2-hydroxymethyl-N-(2′-sulfamoyl-biphenyl-4-yl)-propionamide], with 29 nM; and `NS(=O)(=O)c1ccccc1-c1ccc(NC(=O)C2(NC(=O)Nc3ccc(Cl)cc3)CCOCC2)c(F)c1` [Example 16, 4-[3-(4-Chloro-phenyl)-ureido]-tetrahydro-pyran-4-carboxylic acid (3-fluoro-2′-sulfamoyl-biphenyl-4-yl)-amide], with 252 nM. In the case of `NS(=O)(=O)c1ccccc1-c1ccc(NC(=O)C2(NC(=O)Nc3ccc(Cl)cc3)CCSCC2)c(F)c1` [Example 17, 4-[3-(4-Chloro-phenyl)-ureido]-tetrahydro-thiopyran-4-carboxylic acid (3-fluoro-2′-sulfamoyl-biphenyl-4-yl)-amide], the half-inhibitory concentration (IC50) worked out at 65 nM. On the same count and under the same terms, then `CS(=O)(=O)c1ccccc1-c1ccc(NC(=O)[C@]2(NC(=O)Nc3ccc(Cl)cc3)C[C@@H]2CO)c(F)c1` [Example 18, (1S,2S)-1-[3-(4-Chloro-phenyl)-ureido]-2-hydroxymethyl-cyclopropanecarboxylic acid (3-fluoro-2′-methanesulfonyl-biphenyl-4-yl)-amide], with 21 nM; and `O=C(Nc1ccc(Cl)cc1)N[C@@]1(C(=O)Nc2ccc(N3CCCCC3=O)cc2F)C[C@@H]1CO` [Example 19, (1S,2S)-1-[3-(4-Chloro-phenyl)-ureido]-2-hydroxymethyl-cyclopropanecarboxylic acid [2-fluoro-4-(2-oxo-piperidin-1-yl)-phenyl]-amide], with 129 nM; and `CS(=O)(=O)c1ccccc1-c1ccc(NC(=O)[C@@]2(NC(=O)Nc3ccc(Cl)cc3)C[C@@H]2CO)c(F)c1` [Example 20, (1R,2S)-1-[3-(4-Chloro-phenyl)-ureido]-2-hydroxymethyl-cyclopropanecarboxylic acid (3-fluoro-2′-methanesulfonyl-biphenyl-4-yl)-amide], with 35 nM.

On to `O=C(Nc1ccc(Cl)cc1)N[C@]1(C(=O)Nc2ccc(N3CCCCC3=O)cc2F)C[C@@H]1CO` [Example 21, (1R,2S)-1-[3-(4-Chloro-phenyl)-ureido]-2-hydroxymethyl-cyclopropanecarboxylic acid [2-fluoro-4-(2-oxo-piperidin-1-yl)-phenyl]-amide], for which the IC50 came to 140 nM. For `CS(=O)(=O)c1ccccc1-c1ccc(NC(=O)C2(NC(=O)Nc3ccc(Cl)cc3)CCN(C(=O)OCc3ccccc3)C2)c(F)c1` (stereo not shown) [Example 22, 3-[3-(4-Chloro-phenyl)-ureido]-3-(3-fluoro-2′-methanesulfonyl-biphenyl-4-ylcarbamoyl)-pyrrolidine-1-carboxylic acid benzyl ester], the concentration for half-maximal inhibition (IC50) was 175 nM. `COCCN(CC(=O)Nc1ccc(-c2ccccc2S(C)(=O)=O)cc1F)C(=O)Nc1ccc(Cl)cc1` [Example 24, 2-[3-(4-Chloro-phenyl)-1-(2-methoxy-ethyl)-ureido]-N-(3-fluoro-2′-methanesulfonyl-biphenyl-4-yl)-acetamide]: the half-inhibitory concentration (IC50) turned out to be 26 nM. For `CC(C)CN(CC(=O)Nc1ccc(-c2ccccc2S(C)(=O)=O)cc1F)C(=O)Nc1ccc(Cl)cc1` [Example 25, 2-[3-(4-Chloro-phenyl)-1-isobutyl-ureido]-N-(3-fluoro-2′-methanesulfonyl-biphenyl-4-yl)-acetamide], the half-maximal inhibitory concentration (IC50) was 105 nM.

As for `COc1ccc(CN(CC(=O)Nc2ccc(-c3ccccc3S(C)(=O)=O)cc2F)C(=O)Nc2ccc(Cl)cc2)cc1` [Example 28, 2-[3-(4-Chloro-phenyl)-1-(4-methoxy-benzyl)ureido]-N-(3-fluoro-2′-methanesulfonyl-biphenyl-4-yl)-acetamide], the half-inhibitory concentration (IC50) worked out at 80 nM. On the same count and under the same terms, the figure for `COCCN(CC(=O)Nc1ccc(N2CCCCC2=O)cc1F)C(=O)Nc1ccc(Cl)cc1` [Example 29, 2-[3-(4-Chloro-phenyl)-1-(2-methoxy-ethyl)-ureido]-N-[2-fluoro-4-(2-oxo-piperidin-1-yl)-phenyl]-acetamide] is 224 nM.

System in the next assay: not given
Assay: not given
The following applies: models of arterial and venous thrombosis; cited from earlier work.
B1: the antithrombotic activity result is listed as “displays antithrombotic activity”.
